Reference: ChEMBL document CHEMBL4229526, “Quinoxaline derivatives as potential antitrypanosomal and antileishmanial agents” (Bioorg Med Chem, 2018)

What was measured:
Trypanosoma brucei = assay: Antitrypanosomal activity against Trypanosoma brucei Lister 427 bloodstream forms after 48 hrs by resazurin dye based fluorescence assay; format: functional, organism-based; settings: Lister 427, 48 h
Trypanosoma cruzi [1] = assay: Antitrypanosomal activity against Trypanosoma cruzi Tulahuen trypomastigote forms infected in monkey LLC-MK2 cells after 24 hrs by CellTiter-Glo luminescent cell viability assay; format: functional, organism-based; settings: LLC-MK2, 24 h
Leishmania donovani [2] = assay: Antileishmanial activity against Leishmania donovani MHOM/SD/62/1S-CL2D LdBOB axenic amastigotes harboring eGFP after 72 hrs by resazurin dye based fluorescence assay; format: functional, organism-based
Trypanosoma cruzi [3] = assay: Antitrypanosomal activity against Trypanosoma cruzi Tulahuen amastigote forms infected in rat H9c2 cells assessed as reduction in infected cells after 72 hrs by DRAQ5 DNA dye based confocal microscopic analysis; format: functional, organism-based; settings: H9c2, 72 h
Trypanosoma cruzi [4] = assay: Antitrypanosomal activity against Trypanosoma cruzi Tulahuen amastigote forms infected in rat H9c2 cells assessed as reduction in amastigote number per cell after 72 hrs by DRAQ5 DNA dye based confocal microscopic analysis; format: functional, organism-based; settings: H9c2, 72 h
H9c2 = assay: Cytotoxicity against rat H9c2 cells infected with Trypanosoma cruzi Tulahuen amastigote forms assessed as reduction in cell number after 72 hrs by DRAQ5 DNA dye based confocal microscopic analysis; settings: H9c2, 72 h
Leishmania donovani [5] = assay: Antileishmanial activity against Leishmania donovani MHOM/SD/62/1S-CL2D LdBOB amastigotes harboring eGFP infected in human THP1 cells assessed as reduction in infected cells after 96 hrs by DAPI staining based microscopic analysis; format: functional, organism-based; settings: THP-1, 96 h
Leishmania donovani [6] = assay: Antileishmanial activity against Leishmania donovani MHOM/SD/62/1S-CL2D LdBOB amastigotes harboring eGFP infected in human THP1 cells assessed as reduction in number of amastigotes per cell after 96 hrs by DAPI staining based microscopic analysis; format: functional, organism-based; settings: THP-1, 96 h
THP-1 = assay: Cytotoxicity against human THP1 cells infected with Leishmania donovani MHOM/SD/62/1S-CL2D LdBOB amastigotes harboring eGFP assessed as reduction in cell number after 96 hrs by DAPI staining based microscopic analysis; settings: THP-1, 96 h
[7] = Cytotoxicity against human HepG2 cells after 48 hrs by CellTiter-Glo cell viability assay; format: cell-based

Compound | IC50 (Trypanosoma brucei) [µM] | IC50 (Trypanosoma cruzi [1]) [µM] | IC50 (Leishmania donovani [2]) [µM] | IC50 (Trypanosoma cruzi [3]) [µM] | IC50 (Trypanosoma cruzi [4]) [µM] | IC50 (H9c2) [µM] | IC50 (Leishmania donovani [5]) [µM] | IC50 (Leishmania donovani [6]) [µM] | IC50 (THP-1) [µM] | CC50 at 48 h [7] [µM]
CCCCNc1nc2ccc(OC)cc2nc1S(C)(=O)=O | 25.1 | 8.86 | 12.6 | 19.9 | 19.9 | 15.8 | 31.6 | 25.1 | 12.6 | 19.9
COc1ccc2nc(NCCO)c(S(C)(=O)=O)nc2c1 | 39.8 | 23.5 | 25.1 | 39.8 | 31.6 | 31.6 | > 50 | 25.1 | 31.6 | 39.8
CCCCNc1nc2ccccc2nc1S(C)(=O)=O | 25.1 | 8.67 | 10 | 15.8 | 15.8 | 10 | 25.1 | 19.9 | 12.6 | 12.6
COc1ccc2nc(NC3CCCCC3)c(S(C)(=O)=O)nc2c1 | 15.8 | 3.64 | 10 | 15.8 | 12.6 | 6.31 | 7.94 | 6.31 | 10 | 12.6
CCCCNc1nc2cc(OC)ccc2nc1S(C)(=O)=O | 25.1 | 41.8 | > 50 | 39.8 | 25.1 | 31.6 | > 50 | > 50 | > 50 | > 100
COc1ccc2nc(S(C)(=O)=O)c(NCCO)nc2c1 | 39.8 | 0.77 | > 50 | > 50 | > 50 | > 50 | > 50 | > 50 | > 50 | > 100
COc1ccc2nc(S(C)(=O)=O)c(NC3CCCCC3)nc2c1 | 25.1 | 42.5 | > 50 | 19.9 | 15.8 | 19.9 | > 50 | > 50 | 31.6 | 79.4
COc1ccc2nc(S(C)(=O)=O)c(NCC(C)C)nc2c1 | 31.6 | 44 | > 50 | 31.6 | 31.6 | 31.6 | > 50 | > 50 | > 50 | 79.4
COc1ccc2nc(S(C)(=O)=O)c(NCCC(C)C)nc2c1 | 25.1 | > 50 | > 50 | 19.9 | 15.8 | 31.6 | > 50 | > 50 | 39.8 | 50.1
CCCCNc1nc2cc(Br)ccc2nc1S(C)(=O)=O | 6.31 | 0.98 | 5.01 | 7.94 | 5.01 | 5.01 | 10 | 6.31 | 7.94 | 7.94
COc1ccc2nc(NCC(C)C)c(S(C)(=O)=O)nc2c1 | 25.1 | 5.44 | 12.6 | 19.9 | 15.8 | 10 | 19.9 | 12.6 | 7.94 | 12.6
CCCCNc1nc2cc(Cl)ccc2nc1S(C)(=O)=O | 6.31 | 0.96 | 3.16 | 10 | 7.94 | 5.01 | 7.94 | 7.94 | 5.01 | 6.31
CS(=O)(=O)c1nc2ccc(Cl)cc2nc1NC1CCCCC1 | 2.51 | 0.4 | 3.98 | 7.94 | 5.01 | 3.98 | 10 | 12.6 | 6.31 | 5.01
COc1ccc2nc(NC3CCCCC3)c([S+](C)[O-])nc2c1 (stereo unspecified) | 19.9 | 7.74 | 7.94 | 12.6 | 10 | 5.01 | 7.94 | 6.31 | 10 | 12.6
C[S+]([O-])c1nc2ccc(Cl)cc2nc1NC1CCCCC1 (stereo unspecified) | 6.31 | 0.74 | 10 | 5.01 | 3.98 | 3.16 | 31.6 | 31.6 | 31.6 | 15.8
COc1ccc2nc(-c3ccc(-c4ccccc4)cc3)c(-c3ccc(S(C)(=O)=O)cc3)nc2c1 | 31.6 | 42.4 | > 50 | 19.9 | 31.6 | 25.1 | > 50 | > 50 | 39.8 | > 100
C[C@@H]1[C@H](O)[C@@H](C)/C=C/C=C/C=C/C=C/C=C/C=C/C=C/[C@H](O[C@@H]2O[C@H](C)[C@@H](O)[C@H](N)[C@@H]2O)C[C@@H]2O[C@](O)(C[C@@H](O)C[C@@H](O)[C@H](O)CC[C@@H](O)C[C@@H](O)CC(=O)O[C@H]1C)C[C@H](O)[C@H]2C(=O)O [AMPHOTERICIN B] | – | – | 1.58 | – | – | – | 0.63 | 0.63 | 10 | –
O=C(Cn1ccnc1[N+](=O)[O-])NCc1ccccc1 [BENZNIDAZOLE] | 3.24 | 23 | – | 5.3 | 1.26 | > 50 | – | – | – | –
NCCC[C@](N)(C(=O)O)C(F)F [EFLORNITHINE, (S)-] | 32.4 | – | – | – | – | – | – | – | – | –
CCCCCCCCCCCCCCCCOP(=O)([O-])OCC[N+](C)(C)C [MILTEFOSINE] | – | – | 7.94 | – | – | – | 5.01 | 3.98 | 15.8 | –
CC1CS(=O)(=O)CCN1/N=C/c1ccc([N+](=O)[O-])o1 (stereo unspecified) [NIFURTIMOX] | 7.58 | 2.97 | – | 5.9 | 0.4 | > 50 | – | – | – | –
N=C(N)c1ccc(OCCCCCOc2ccc(C(=N)N)cc2)cc1 [PENTAMIDINE] | 0.01 | – | – | – | – | – | – | – | – | –
Cc1ccc(C(=O)Nc2ccc(S(=O)(=O)O)c3cc(S(=O)(=O)O)cc(S(=O)(=O)O)c23)cc1NC(=O)c1cccc(NC(=O)Nc2cccc(C(=O)Nc3cc(C(=O)Nc4ccc(S(=O)(=O)O)c5cc(S(=O)(=O)O)cc(S(=O)(=O)O)c45)ccc3C)c2)c1 [SURAMIN] | 0.18 | – | – | – | – | – | – | – | – | –
